Data taken from the supplement of paper PMC9265050, “Inhibition of RNA Binding in SND1 Increases the Levels of miR-1-3p and Sensitizes Cancer Cells to Navitoclax” (Cancers, 2022).

Test system: SW480
Assay: drug sensitivity score (DSS, integrated dose-response area); higher = more sensitive (stronger viability reduction); extreme values may be limits of the assay
Outline: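 Viability of induced SW480 cells carrying control or SND1-targeting shRNA was read by CellTiter-Glo 72 h after plating at 1000 cells per well onto 384-well plates holding 525 small-molecule inhibitors at five concentrations. Induction used 0.1 µg/mL doxycycline for 7 days. Each drug sensitivity score integrates the area under a fitted non-linear dose–response model.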

[1] = shRNA: SND1 shRNA1 (SND1 silenced)
[2] = shRNA: SND1 shRNA2 (SND1 silenced)
[3] = shRNA: control shRNA (non-targeting)

## CCNC(=O)Nc1ccc(-c2nc3c(c(N4CCOC[C@@H]4C)n2)CCN(C2COC2)C3)cc1 [RG-7603]
[1]
  drug sensitivity score: 0.7 DSS
[2]
  drug sensitivity score: 1.3 DSS
[3]
  drug sensitivity score: 0.7 DSS

## Nc1cc(F)ccc1NC(=O)/C=C/c1cnn(C/C=C/c2ccccc2)c1 [RGFP966]
[1]
  drug sensitivity score: 6.3 DSS
[2]
  drug sensitivity score: 6.3 DSS
[3]
  drug sensitivity score: 6.8 DSS

## Cc1cnc(NC(=O)Nc2cc(Br)c(C)cc2OC[C@@H]2CNCCO2)cn1 [Rabusertib]
[1]
  drug sensitivity score: 1.8 DSS
[2]
  drug sensitivity score: 1.4 DSS
[3]
  drug sensitivity score: 2 DSS

## C[C@@H]1C[C@H]2O[C@@H]2/C=C\C=C\C(=O)Cc2c(Cl)c(O)cc(O)c2C(=O)O1 [Radicicol]
[1]
  drug sensitivity score: 13.4 DSS
[2]
  drug sensitivity score: 12.1 DSS
[3]
  drug sensitivity score: 12.3 DSS

## CC(C)(C)Cn1c(N)nc2ccc(-c3[nH]c(C(C)(C)C)nc3-c3ccc(F)cc3)nc21 [Ralimetinib]
[1]
  drug sensitivity score: 1.7 DSS
[2]
  drug sensitivity score: 0 DSS
[3]
  drug sensitivity score: 0.2 DSS

## O=C(c1ccc(OCCN2CCCCC2)cc1)c1c(-c2ccc(O)cc2)sc2cc(O)ccc12 [Raloxifene]
[1]
  drug sensitivity score: 6.6 DSS
[2]
  drug sensitivity score: 4.1 DSS
[3]
  drug sensitivity score: 7.2 DSS

## Cc1nc(=O)c2cc(CN(C)c3ccc(C(=O)N[C@@H](CCC(=O)O)C(=O)O)s3)ccc2[nH]1 [Raltitrexed]
[1]
  drug sensitivity score: 5.2 DSS
[2]
  drug sensitivity score: 0 DSS
[3]
  drug sensitivity score: 4.8 DSS

## CNC(=O)c1cc(Oc2ccc(NC(=O)Nc3cc(C(C)(C)C)nn3-c3ccc4ncccc4c3)c(F)c2)ccn1 [Rebastinib]
[1]
  drug sensitivity score: 0 DSS
[2]
  drug sensitivity score: 0 DSS
[3]
  drug sensitivity score: 0 DSS

## COc1cc(F)c(F)c(Nc2ccc(I)cc2F)c1NS(=O)(=O)C1(C[C@H](O)CO)CC1 [Refametinib]
[1]
  drug sensitivity score: 26.8 DSS
[2]
  drug sensitivity score: 18 DSS
[3]
  drug sensitivity score: 11.1 DSS

## CNC(=O)c1cc(Oc2ccc(NC(=O)Nc3ccc(Cl)c(C(F)(F)F)c3)c(F)c2)ccn1 [Regorafenib]
[1]
  drug sensitivity score: 7.8 DSS
[2]
  drug sensitivity score: 7.9 DSS
[3]
  drug sensitivity score: 5.1 DSS

## CN(C)Cc1ccc(S(=O)(=O)n2ccc(/C=C/C(=O)NO)c2)cc1 [Resminostat]
[1]
  drug sensitivity score: 8 DSS
[2]
  drug sensitivity score: 8.1 DSS
[3]
  drug sensitivity score: 6.1 DSS

## CN(C)C(=O)c1cc2cnc(Nc3ccc(N4CCNCC4)cn3)nc2n1C1CCCC1 [Ribociclib]
[1]
  drug sensitivity score: 3.8 DSS
[3]
  drug sensitivity score: 4.9 DSS

## CO[C@H]1C[C@@H]2CC[C@@H](C)[C@@](O)(O2)C(=O)C(=O)N2CCCC[C@H]2C(=O)O[C@H]([C@H](C)C[C@@H]2CC[C@@H](OP(C)(C)=O)[C@H](OC)C2)CC(=O)[C@H](C)/C=C(\C)[C@@H](O)[C@@H](OC)C(=O)[C@H](C)C[C@H](C)/C=C/C=C/C=C/1C [Ridaforolimus]
[1]
  drug sensitivity score: 5.9 DSS
[3]
  drug sensitivity score: 2.3 DSS

## COc1cc(OC)c(/C=C/S(=O)(=O)Cc2ccc(OC)c(NCC(=O)O)c2)c(OC)c1 [Rigosertib]
[1]
  drug sensitivity score: 15.1 DSS
[2]
  drug sensitivity score: 18.2 DSS
[3]
  drug sensitivity score: 16.4 DSS

## C=CC(=O)Nc1cccc(Nc2nc(Nc3ccc(N4CCN(C(C)=O)CC4)cc3OC)ncc2C(F)(F)F)c1 [Rociletinib]
[1]
  drug sensitivity score: 7.2 DSS
[2]
  drug sensitivity score: 3.5 DSS
[3]
  drug sensitivity score: 7.5 DSS

## O=C(CCCCCCNC(=O)c1cnc(N(c2ccccc2)c2ccccc2)nc1)NO [Rocilinostat]
[1]
  drug sensitivity score: 4 DSS
[2]
  drug sensitivity score: 7 DSS
[3]
  drug sensitivity score: 8.4 DSS

## CS(=O)(=O)c1ccc(C2=C(c3ccccc3)C(=O)OC2)cc1 [Rofecoxib]
[1]
  drug sensitivity score: 0 DSS
[2]
  drug sensitivity score: 0 DSS
[3]
  drug sensitivity score: 0 DSS

## C/C=C1\NC(=O)[C@H]2CSSCC/C=C/[C@H](CC(=O)N[C@H](C(C)C)C(=O)N2)OC(=O)[C@H](C(C)C)NC1=O [Romidepsin]
[1]
  drug sensitivity score: 25.7 DSS
[2]
  drug sensitivity score: 25.1 DSS
[3]
  drug sensitivity score: 27.4 DSS

## CN(C)C[C@@H]1CCn2cc(c3ccccc32)C2=C(C(=O)NC2=O)c2cn(c3ccccc23)CCO1 [Ruboxistaurin]
[1]
  drug sensitivity score: 8.1 DSS
[2]
  drug sensitivity score: 7.8 DSS
[3]
  drug sensitivity score: 7.4 DSS

## CNCc1ccc(-c2[nH]c3cc(F)cc4c3c2CCNC4=O)cc1 [Rucaparib]
[1]
  drug sensitivity score: 0.3 DSS
[2]
  drug sensitivity score: 3 DSS
[3]
  drug sensitivity score: 4.6 DSS

## N#CC[C@H](C1CCCC1)n1cc(-c2ncnc3[nH]ccc23)cn1 [Ruxolitinib]
[1]
  drug sensitivity score: 2.3 DSS
[2]
  drug sensitivity score: 5.6 DSS
[3]
  drug sensitivity score: 4.4 DSS

## CC(C)N(CCCNC(=O)Nc1ccc(C(C)(C)C)cc1)C[C@H]1O[C@@H](n2cc(Br)c3c(N)ncnc32)[C@H](O)[C@@H]1O [SGC0946]
[1]
  drug sensitivity score: 4.6 DSS
[2]
  drug sensitivity score: 1.3 DSS
[3]
  drug sensitivity score: 4.3 DSS

## COc1ccc(CCc2nc3cc(-c4c(C)noc4C)ccc3n2C[C@H](C)N2CCOCC2)cc1Cl [SGC-CBP30]
[1]
  drug sensitivity score: 0.8 DSS
[2]
  drug sensitivity score: 2.1 DSS
[3]
  drug sensitivity score: 2.3 DSS

## CN1CCC(CNc2ccc3ncc(-c4cccc(OC(F)(F)F)c4)n3n2)CC1 [SGI-1776]
[1]
  drug sensitivity score: 9.6 DSS
[2]
  drug sensitivity score: 9.5 DSS
[3]
  drug sensitivity score: 8.9 DSS

## Cn1cc(-c2ccc3nnc(Sc4ccc5ncccc5c4)n3n2)cn1 [SGX-523]
[1]
  drug sensitivity score: 0 DSS
[3]
  drug sensitivity score: 0 DSS

## CN(CC(=O)N(Cc1ccc(C2CCCCC2)cc1)c1ccc(C(=O)O)cc1)S(=O)(=O)c1c(F)c(F)c(F)c(F)c1F [SH-4-54]
[1]
  drug sensitivity score: 9.8 DSS
[2]
  drug sensitivity score: 8.6 DSS
[3]
  drug sensitivity score: 9.5 DSS

## CC(C)NC(=O)COc1cccc(-c2nc(Nc3ccc4[nH]ncc4c3)c3ccccc3n2)c1 [SLx-2119]
[1]
  drug sensitivity score: 0 DSS
[2]
  drug sensitivity score: 0 DSS
[3]
  drug sensitivity score: 0 DSS

## CCc1c2c(nc3ccc(O)cc13)-c1cc3c(c(=O)n1C2)COC(=O)[C@]3(O)CC [SN-38]
[1]
  drug sensitivity score: 21.2 DSS
[2]
  drug sensitivity score: 12.5 DSS
[3]
  drug sensitivity score: 18.7 DSS

## CC(C)(C)c1cnc(CSc2cnc(NC(=O)C3CCNCC3)s2)o1 [SNS-032]
[1]
  drug sensitivity score: 18.1 DSS
[2]
  drug sensitivity score: 15 DSS
[3]
  drug sensitivity score: 16.5 DSS

## O=C(Nc1cccc(Cl)c1)Nc1ncc(CCNc2ncnc3ccsc23)s1 [SNS-314]
[1]
  drug sensitivity score: 4.8 DSS
[2]
  drug sensitivity score: 4.3 DSS
[3]
  drug sensitivity score: 5.6 DSS

## Cc1cc2c(C(=O)NC[C@H](C)c3ccccc3)c(O)c(O)cc2c(O)c1-c1c(C)cc2c(C(=O)NC[C@H](C)c3ccccc3)c(O)c(O)cc2c1O [Sabutoclax]
[1]
  drug sensitivity score: 14.2 DSS
[2]
  drug sensitivity score: 13.3 DSS
[3]
  drug sensitivity score: 12.7 DSS

## CNC(=O)CN1CCC(Oc2cc3c(Nc4cccc(Cl)c4F)ncnc3cc2OC)CC1 [Sapitinib]
[1]
  drug sensitivity score: 0.1 DSS
[2]
  drug sensitivity score: 5 DSS
[3]
  drug sensitivity score: 0 DSS

## CN1CCN(CCOc2cc(OC3CCOCC3)c3c(Nc4c(Cl)ccc5c4OCO5)ncnc3c2)CC1 [Saracatinib]
[1]
  drug sensitivity score: 1.4 DSS
[2]
  drug sensitivity score: 1.3 DSS
[3]
  drug sensitivity score: 1.5 DSS

## CC[C@H](CO)Nc1nc(NCc2ccccc2)c2ncn(C(C)C)c2n1 [Seliciclib]
[1]
  drug sensitivity score: 2.1 DSS
[2]
  drug sensitivity score: 0.7 DSS
[3]
  drug sensitivity score: 1.2 DSS

## O=C(/C=C\n1cnc(-c2cc(C(F)(F)F)cc(C(F)(F)F)c2)n1)NNc1cnccn1 [Selinexor]
[1]
  drug sensitivity score: 19.5 DSS
[2]
  drug sensitivity score: 19.3 DSS
[3]
  drug sensitivity score: 20.7 DSS

## Cn1cnc2c(F)c(Nc3ccc(Br)cc3Cl)c(C(=O)NOCCO)cc21 [Selumetinib]
[1]
  drug sensitivity score: 19.1 DSS
[2]
  drug sensitivity score: 8.9 DSS
[3]
  drug sensitivity score: 4.7 DSS
